Assays:
[1] = molecular target: Syk (Homo sapiens, UniProt P43405); experiment: Syk enzyme inhibition (FRET); assay type: biochemical; conditions: Table 4a1
Protocol: (§1) The enzyme inhibitory activities of compounds disclosed herein are determined by FRET using synthetic peptides labelled with both donor and acceptor fluorophores (Z-LYTE, Invitrogen Ltd., Paisley, UK).
(§2) The relevant enzyme (3000 ng/mL or 2000 ng/mL respectively, 2.5 μL) is incubated with the test compound (either 4 μg/mL, 0.4 μg/mL, 0.04 μg/mL, or 0.004 μg/mL, 2.5 μL each) for 2 hr at RT. The FRET peptides (8 μM, 2.5 μL), and appropriate ATP solutions (2.5 μL, 800 μM for c-Src, and 60 μM ATP for Syk) are then added to the enzymes/compound mixtures and incubated for 1 hr. Development reagent (protease, 5 μL) is added for 1 hr prior to detection in a fluorescence microplate reader (Varioskan® Flash, ThermoFisher Scientific).
(§3) In all cases, the site-specific protease cleaves non-phosphorylated peptide only and eliminates the FRET signal. Phosphorylation levels of each reaction are calculated using the ratio of coumarin emission (donor) over fluorescein emission (acceptor), for which high ratios indicate high phosphorylation and low ratios indicate low phosphorylation levels.

[2] = molecular target: GSK3α (Homo sapiens, UniProt P49840); experiment: GSK 3α enzyme inhibition (FRET), Method 1; assay type: biochemical; conditions: Table 4a1
Protocol: as §1
The following two assay variants are used for determination of GSK 3a inhibition.
The inhibitory activities of compounds of the invention against the GSK 3a enzyme isoform (Invitrogen), are evaluated by determining the level of activation/phosphorylation of the target peptide. The GSK3-α protein (500 ng/mL, 2.5 μL) is mixed with the test compound (2.5 μL at either 4 μg/mL, 0.4 μg/mL, 0.04 μg/mL, or 0.004 μg/mL) for 2 hr at RT. The FRET peptide (8 μM, 2.5 μL), which is a phosphorylation target for GSK3α, and ATP (40 μM, 2.5 μL) are then added to the enzyme/compound mixture and the resulting mixture incubated for 1 hr. Development reagent (protease, 5 μL) is added for 1 hr prior to detection in a fluorescence microplate reader (Varioskan® Flash, ThermoFisher Scientific).
as §3

[3] = molecular target: cSrc (Homo sapiens, UniProt P12931); experiment: c-Src enzyme inhibition (FRET); assay type: biochemical; conditions: Table 4a1
Protocol: as §1, §2, §3

[4] = tested on: d-U937 cells; experiment: Cell viability: MTT assay; assay type: cell-based, human; conditions: 1 μg/mL
Protocol: (l) The Effect of Test Compounds on Cell Viability: MTT Assay
Differentiated U937 cells are pre-incubated with each test compound (final concentration 1 μg/mL or 10 μg/mL in 200 μL media indicated below) under two protocols: the first for 4 hr in 5% FCS RPMI1640 media and the second in 10% FCS RPMI1640 media for 24 h. The supernatant is replaced with new media (200 μL) and MTT stock solution (10 μL, 5 mg/mL) is added to each well. After incubation for 1 hr the media are removed, DMSO (200 μL) is added to each well and the plates are shaken lightly for 1 hr prior to reading the absorbance at 550 nm. The percentage loss of cell viability is calculated for each well relative to vehicle (0.5% DMSO) treatment. Consequently an apparent increase in cell viability for drug treatment relative to vehicle is tabulated as a negative percentage.

[5] = tested on: TNFα release, d-U937 cells; experiment: LPS-induced TNFα release in d-U937 cells; assay type: cell-based; conditions: Homo sapiens, dU937; relative to 10 μg/mL BIRB796; Table 4c1; read-out: LPS Induced Release of Cytokine in d-U937 Cells, TNFα REC50
Protocol: (§4) (a) LPS-Induced TNFα/IL-8 Release in d-U937Cells
U937 cells, a human monocytic cell line, are differentiated into macrophage-type cells by incubation with PMA (100 ng/mL) for 48 to 72 hr. Cells are pre-incubated with final concentrations of test compound for 2 hr and are then stimulated with LPS (0.1 μg/mL; from E. Coli: 0111:B4, Sigma) for 4 hr. The supernatant is collected for determination of TNFα and IL-8 concentrations by sandwich ELISA (Duo-set, R&D systems). […] The relative 50% effective concentration (REC50) is determined from the resultant concentration-response curve. The inhibition of IL-8 production is calculated at each concentration of test compound by comparison with vehicle control.

[6] = tested on: ICAM-1 expression, BEAS2B cells; experiment: Poly I:C-induced ICAM-1 expression in BEAS2B cells; assay type: cell-based; conditions: Homo sapiens, BEAS-2B; read-out: Poly IC induced ICAM1 in BEAS2B, IC50
Protocol: (f) Poly I:C-Induced ICAM-1 Expression in BEAS2B Cells
Poly I:C is used in these studies as a simple, RNA virus mimic. Poly I:C-Oligofectamine mixture (1 μg/mL Poly I:C, ±2% Oligofectamine, 25 μL; Invivogen Ltd., San Diego, Calif., and Invitrogen, Carlsbad, Calif., respectively) is transfected into BEAS2B cells (human bronchial epithelial cells, ATCC). Cells are pre-incubated with final concentrations of test compounds for 2 hr and the level of ICAM1 expression on the cell surface is determined by cell-based ELISA. At a time point 18 hr after poly I:C transfection, cells are fixed with 4% formaldehyde in PBS (100 μL) and then endogenous peroxidase is quenched by the addition of washing buffer (100 μL, 0.05% Tween in PBS: PBS-Tween) containing 0.1% sodium azide and 1% hydrogen peroxide. Cells are washed with wash-buffer (3×200 μL). and after blocking the wells with 5% milk in PBS-Tween (100 μL) for 1 hr, the cells are incubated with anti-human ICAM-1 antibody (50 μL; Cell Signalling Technology, Danvers, Mass.) in 1% BSA PBS overnight at 4° C.
The cells are washed with PBS-Tween (3×200 μL) and incubated with the secondary antibody (100 μL; HRP-conjugated anti-rabbit IgG, Dako Ltd., Glostrup, Denmark). […] The ICAM-1 signal is detected by reading the absorbance at 450 nm against a reference wavelength of 655 nm using a spectrophotometer. The cells are then washed with PBS-Tween (3×200 μL) and total cell numbers in each well are determined by reading absorbance at 595 nm after Crystal Violet staining (50 μL of a 2% solution in PBS) and elution by 1% SDS solution (100 μL) in distilled water. The measured OD 450-655 readings are corrected for cell number by dividing with the OD595 reading in each well. The inhibition of ICAM-1 expression is calculated at each concentration of test compound by comparison with vehicle control.

[7] = tested on: IL-8 release, d-U937 cells; experiment: LPS-induced IL-8 release in d-U937 cells; assay type: cell-based; conditions: Homo sapiens, dU937; Table 4c1; read-out: LPS Induced Release of Cytokine in d-U937 Cells, IL-8 IC50
Protocol: as §4
U937 cells, a human monocytic cell line, are differentiated into macrophage-type cells by incubation with PMA (100 ng/mL) for 48 to 72 hr. Cells are pre-incubated with final concentrations of test compound for 2 hr and are then stimulated with LPS (0.1 μg/mL; from E. Coli: 0111:B4, Sigma) for 4 hr. […] The relative 50% effective concentration (REC50) is determined from the resultant concentration-response curve.

Sequence of cSrc (P12931 whole entry): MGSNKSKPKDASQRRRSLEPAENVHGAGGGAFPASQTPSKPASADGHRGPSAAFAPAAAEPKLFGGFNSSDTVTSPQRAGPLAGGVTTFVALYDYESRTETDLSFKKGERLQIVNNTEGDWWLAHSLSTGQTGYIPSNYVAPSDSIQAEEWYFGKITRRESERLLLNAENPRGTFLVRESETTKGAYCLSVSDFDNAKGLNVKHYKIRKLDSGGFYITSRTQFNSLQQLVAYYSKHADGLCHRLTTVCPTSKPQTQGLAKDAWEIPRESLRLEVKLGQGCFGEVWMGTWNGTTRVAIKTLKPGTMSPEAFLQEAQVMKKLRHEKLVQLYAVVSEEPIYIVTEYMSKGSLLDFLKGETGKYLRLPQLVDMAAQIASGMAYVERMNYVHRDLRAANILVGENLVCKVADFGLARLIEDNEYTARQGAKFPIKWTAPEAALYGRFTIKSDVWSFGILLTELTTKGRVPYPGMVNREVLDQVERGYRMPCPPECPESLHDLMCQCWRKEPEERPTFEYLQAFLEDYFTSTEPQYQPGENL
Sequence of GSK3α (P49840 whole entry): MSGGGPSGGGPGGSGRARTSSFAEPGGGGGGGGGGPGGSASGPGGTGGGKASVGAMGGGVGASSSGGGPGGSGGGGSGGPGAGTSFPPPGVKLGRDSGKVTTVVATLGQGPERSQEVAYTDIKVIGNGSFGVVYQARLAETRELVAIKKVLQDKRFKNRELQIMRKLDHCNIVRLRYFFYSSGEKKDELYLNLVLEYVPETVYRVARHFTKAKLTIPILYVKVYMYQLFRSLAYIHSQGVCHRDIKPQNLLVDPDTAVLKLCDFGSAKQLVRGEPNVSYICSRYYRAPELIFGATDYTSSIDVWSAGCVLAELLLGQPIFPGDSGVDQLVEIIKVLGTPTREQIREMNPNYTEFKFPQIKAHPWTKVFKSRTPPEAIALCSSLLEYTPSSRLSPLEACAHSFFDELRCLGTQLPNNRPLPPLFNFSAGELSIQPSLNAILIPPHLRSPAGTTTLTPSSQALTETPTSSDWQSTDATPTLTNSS

IC50 [1] [nM]	IC50 [2] [nM]	IC50 [3] [nM]	EC50 [5] [nM]	IC50 [7] [nM]	SMILES	Cell viability at time point in d-U937 cells, 4 h [4]	Cell viability at time point in d-U937 cells, 24 h [4]	IC50 [6] [nM]
20	> 13000	8	–	1.5	C=C(C)c1cc(NC(=O)Nc2ccc(Oc3ccnc(Nc4cc(OC)cc(C(=O)NCCN5CCOCC5)c4)n3)c3ccccc23)n(-c2ccc(OC)cc2)n1 [Example 86, 3-Methoxy-5-((4-((4-(3-(1-(4-methoxyphenyl)-3-(prop-1-en-2-yl)-1H-pyrazol-5-yl)ureido)naphthalen-1-yl)oxy)pyrimidin-2-yl)amino)-N-(2-morpholinoethyl)-benzamide]	−ve (−ve and +ve indicate that the value is below and above respectively, the no significant effect threshold, defined as 30% inhibition at 1 μg/mL at the time point indicated)	−ve (−ve and +ve indicate that the value is below and above respectively, the no significant effect threshold, defined as 30% inhibition at 1 μg/mL at the time point indicated)	–
15	317	–	1.4	–	COc1ccc(-n2nc(C(C)C)cc2NC(=O)Nc2ccc(Oc3ccnc(Nc4cccc(C(=O)NCCN5CCOCC5)c4)n3)c3ccccc23)cc1 [Example 20, 3-((4-((4-(3-(3-isopropyl-1-(4-methoxyphenyl)-1H-pyrazol-5-yl)ureido)naphthalen-1-yl)oxy)pyrimidin-2-yl)amino)-N-(2-morpholinoethyl)benzamide]	−ve (−ve and +ve indicate that the value is below and above respectively, the no significant effect threshold, defined as 30% inhibition at 1 μg/mL at the time point indicated)	−ve (−ve and +ve indicate that the value is below and above respectively, the no significant effect threshold, defined as 30% inhibition at 1 μg/mL at the time point indicated)	–
5	217	–	0.2	0.8	COc1ccc(-n2nc(C(C)(C)C)cc2NC(=O)Nc2ccc(Oc3ccnc(Nc4cc(OC)cc(C(=O)NCCN5CCOCC5)c4)n3)c3ccccc23)cc1 [Example 54, 3-((4-((4-(3-(3-(tert-butyl)-1-(4-methoxyphenyl)-1H-pyrazol-5-yl)ureido)naphthalen-1-yl)oxy)pyrimidin-2-yl)amino)-5-methoxy-N-(2-morpholinoethyl)benzamide]	−ve (−ve and +ve indicate that the value is below and above respectively, the no significant effect threshold, defined as 30% inhibition at 1 μg/mL at the time point indicated)	−ve (−ve and +ve indicate that the value is below and above respectively, the no significant effect threshold, defined as 30% inhibition at 1 μg/mL at the time point indicated)	–

More lines, now with the values behind:

SMILES	IC50 [1] [nM]	IC50 [2] [nM]	IC50 [3] [nM]	EC50 [5] [nM]	IC50 [7] [nM]	Cell viability at time point in d-U937 cells, 4 h [4]	Cell viability at time point in d-U937 cells, 24 h [4]	IC50 [6] [nM]
COc1ccc(-n2nc(C(C)(C)C)cc2NC(=O)Nc2ccc(Oc3cc(Nc4cc(OC)cc(C(=O)NCCN5CCOCC5)c4)ncn3)c(C)c2C)cc1 [Example 91, 3-((6-(4-(3-(3-(tert-Butyl)-1-(4-methoxyphenyl)-1H-pyrazol-5-yl)ureido)-2,3-dimethylphenoxy)pyrimidin-4-yl)amino)-5-methoxy-N-(2-morpholinoethyl)benzamide]	131	3520	< 1.3	–	–	–	–	–
COc1cc(Nc2nccc(Oc3ccc(NC(=O)Nc4cc(C(C)(C)C)nn4-c4ccc(OC)nc4)c4ccccc34)n2)cc(C(=O)NCCN2CCOCC2)c1 [Example 57, 3-((4-((4-(3-(3-(tert-butyl)-1-(6-methoxypyridin-3-yl)-1H-pyrazol-5-yl)ureido)naphthalen-1-yl)oxy)pyrimidin-2-yl)amino)-5-methoxy-N-(2-morpholinoethyl)benzamide]	–	283	< 1	0.6	1.5	−ve (−ve and +ve indicate that the value is below and above respectively, the no significant effect threshold, defined as 30% inhibition at 1 μg/mL at the time point indicated)	−ve (−ve and +ve indicate that the value is below and above respectively, the no significant effect threshold, defined as 30% inhibition at 1 μg/mL at the time point indicated)	1.9
COc1cc(Nc2nccc(Oc3ccc(NC(=O)Nc4cc(C(C)C)nn4-c4ccc(C)cc4)c4ccccc34)n2)cc(C(=O)NCCO)c1 [Example 63, N-(2-hydroxyethyl)-3-((4-((4-(3-(3-isopropyl-1-(p-tolyl)-1H-pyrazol-5-yl)ureido)naphthalen-1-yl)oxy)pyrimidin-2-yl)amino)-5-methoxybenzamide]	865	–	37	0.7	1.4	−ve (−ve and +ve indicate that the value is below and above respectively, the no significant effect threshold, defined as 30% inhibition at 1 μg/mL at the time point indicated)	−ve (−ve and +ve indicate that the value is below and above respectively, the no significant effect threshold, defined as 30% inhibition at 1 μg/mL at the time point indicated)	10.1
